Molecules are shown by their SMILES.

In data set [1] the test system is biofilm on the membrane surface. The data set is described as follows: Normalized permeate flow of the pilot plant with low dose of chloramines. The procedure: FIG. 7 provides a graph showing the normalized permeate flow as a function of operation time for a pilot plant with low dose of chloramines as determined with the bio-sensor test. Also examined was the effect of preventing the development of biofilm on the membrane surface when 4.2 mg/L hypochlorite were added.

Data set [2] concerns microorganisms. The data set is described as follows: Biofouling index on the biosensor after 24 h circulation of water dosed with hypochlorite. It counts as cell-based. How it is done: The change in color on the biosensor was determined for each water sample in six repetitions as described above.
The biofouling Index was determined as follows: Biofouling Index=100×PPP×(1−PPP)+(100−LL)×PPP
For simplicity, the Biofouling Index was translated into a biofouling score, A, B, C, . . . F, according to ranges of biofouling, with lower biofouling range, representing low biofouling identified as score A. The correlating score is identified in Table 7.
Hypochlorite was dissolved to obtain a stock solution of 140 mg/L. Dilutions of this stock solution were as detailed in Table 9. The dilutions were injected into the water circulating in the biosensing apparatus and the total chlorine concentration was measured for each dilution. As control, no hypochlorite was added.
Circulation conditions: flow: 90 ml/min; circulation container volume: 2 L; duration of circulation: 24 hours at a temperature of 35° C.

Data set [3] concerns biofilm on RO membrane. The data set is described as follows: Biofilm grown on RO membranes for 15 days with input water containing chloramines, measured with CLSM. It counts as cell-based. The procedure: Biofilm was allowed to grow on the surface of miniature RO membranes (ESNA1-LF, Hydranautics, USA), equipped within a device having the membrane held within a closed chamber, the chamber comprising a feed inlet, brine outlet and permeate outlet for fluids, where the pressure obtain from the desalination pilot pressurized flows.
For biofilm analysis a 5×5 mm membrane segment was taken from each of the tested membranes. Each segment was inserted into an Eppendorf test tube comprising 2 ml 0.24% sterilized TRIS solution (pH 7.2) and the test tubes were turned upside down gently several time. […]
The staining of the RO membranes with SYTO9 and Tetramethylrhodamine, provided information about the presence and quantity of microorganisms and the extracellular polymeric substance (EPS), respectively. The CLSM images were scanned and analyzed with PHLIP software (http://sourceforge.net/projects/phlip/) which enabled quantization of CLSM data with respect to the biovolume of the biofilm. […]
In addition, water from sampling Point No. 3 (SP3) was allowed to flow through miniature membrane facilities (as described above) in parallel, for 15 days in order to allow growth of biofilm on the surface of the membranes. After 15 days, the membranes were treated and analyzed as described above in order to determine the resulting biovolume. […]

As to `OCl` [Sodium hypochlorite, sodium hypochlorite], in data set [1] (4.2 mg/L hypochlorite, 320 hours, Stage I, Stage II and Stage III), the “Effect on normalized permeate flow” value was “no decrease in permeate flow”. Further, in data set [1] (treatment with hypochlorite, data not shown), the “Effect on biofouling on the membranes” value was “reduced biofouling on the membranes”. For the same compound, in data set [2] (24 h circulation, 35° C.), the “Amount of hypochlorite sufficient to prevent biofouling (close to zero biofouling)” value was 4.2 mg/L. Also, in data set [2] (all tested amounts of hypochlorite, control C, 24 h circulation), the “Biofouling index after addition of hypochlorite (drop from control level C)” value is given as “B (biofouling index <6)”. The Biofouling index result is reported as “B (biofouling index <6)” in data set [2] (sodium hypochlorite 0.7 mg/l, total chloramines 0.17 mg/l, 24 h circulation, 35° C.); “B (biofouling index <6)” in data set [2] (sodium hypochlorite 1.4 mg/l, total chloramines 0.29 mg/l, 24 h circulation, 35° C.); “B (biofouling index <6)” in data set [2] (sodium hypochlorite 2.1 mg/l, total chloramines 0.45 mg/l, 24 h circulation, 35° C.); “B (biofouling index <6)” in data set [2] (sodium hypochlorite 2.8 mg/l, total chloramines 0.94 mg/l, 24 h circulation, 35° C.); “B (biofouling index <6)” in data set [2] (sodium hypochlorite 2.8 mg/l, total chloramines 1.0 mg/l, 24 h circulation, 35° C.); “B (biofouling index <6)” in data set [2] (sodium hypochlorite 4.2 mg/l, total chloramines 1.42 mg/l, 24 h circulation, 35° C.). For the same compound, the Biofouling index entry in data set [2] (sodium hypochlorite 4.2 mg/l, total chloramines 1.48 mg/l, 24 h circulation, 35° C.) was “B (biofouling index <6)”; in data set [2] (sodium hypochlorite 4.6 mg/l, total chloramines 1.63 mg/l, 24 h circulation, 35° C.), “B (biofouling index <6)”; in data set [2] (sodium hypochlorite 5.6 mg/l, total chloramines 1.86 mg/l, 24 h circulation, 35° C.), “B (biofouling index <6)”. Also, the “Biofouling index (numerical, FIG. 4)” value in data set [2] (total chlorine concentration of 1.4 mg/L and more) is on record as “close to zero”. The “Biovolume of biofilm on the membrane relative to that without hypochlorite” value in data set [3] (4.2 mg/L hypochlorite (1.5 mg/L chloramines), injected 4 hours per day, Stage I input water) was “about ⅕”. Besides, the “Thickness of biofilm relative to that in the absence of chloramines” value in data set [3] (hypochlorite added (chloramines)) was “about ⅕”.

The values are drawn from patent US9637770B2, “Methods and devices for handling biofouling” (MEKOROT WATER COMPANY, LTD., priority 2011, dated 2017).
